This note sets out measurements from PubChem BioAssay AID2008 (University of Pittsburgh Molecular Library Screening Center, 2009).

As a reminder, the EC50 is the concentration needed to bring the measured effect to its halfway point.

Calls of active or inactive are those of the source. How the calls were made is not given here. Where only a bound is given, the exact number is not on record here.

In this assay the test system is Leishmania major promastigote growth inhibition. Put plainly: antileishmanial activity against L. major promastigotes – EC50, dose response (AID 2008).
Regarding `COC(=O)c1cc2ccsc2n1Cc1nc(-c2ccc(OC)cc2)oc1C`, the EC50 is 104 nM.

Take `CCCCCCCCCCCCCCCC[n+]1ccc(/C=N/O)cc1`: the half-maximal effective concentration (EC50) was 9.38 nM.

As for `Cc1ccccc1-n1ncc2c([N+](=O)[O-])cc([N+](=O)[O-])cc21`, the EC50 was 60.9 nM.

`CCOC(=O)c1c2c(n(C)c1C)C(=O)C(=O)c1ccc(Br)cc1-2`: the EC50 is 85.7 nM.

Consider `O=C1c2ccccc2C(=O)C12Cc1ccccc1N1CCN(c3ccccc3)CC12` (configuration not stated), for which the concentration for a half-maximal effect (EC50) was 1910 nM.

Turning to `COC(=O)c1ccc(-c2ccc(CNCC(O)c3ccccc3)o2)cc1` (configuration not stated), the EC50 is 102 nM.

In the case of `O=[N+]([O-])c1ccc(NNC(=S)Nc2ccc(F)cc2)cc1`, the EC50 is 449 nM.

For `C[C@H]1C[C@@H](C)C(=O)[C@@H]([C@H](O)CC2CC(=O)NC(=O)C2)C1`, the concentration for a half-maximal effect (EC50) was 1 nM.

With `N#Cc1cc(Oc2ccc3ccccc3c2)c(-n2nnc3ccccc32)cc1C#N`, the EC50 is > 5000 nM (inactive).

In the case of `CN(C)c1cc(N/N=C/c2ccc(Cl)cc2)nc(N(C)C)n1`, the EC50 is 502 nM.

`Cc1ccc2c(c1)c(=O)c1c3n2CCN(C(=O)CCl)C3CC1` (configuration not stated): the EC50 is 1970 nM.

As to `COc1cccc2c(=O)c(C/C=C(/C)Cl)c(C)[nH]c12`, the concentration giving a half-maximal response (EC50) was 107 nM.

Regarding `O=C(O)CCC(=O)Nc1ccc(N2CCCCCC2)cc1`, the EC50 is 1740 nM.

For the compound `COC(=O)[C@@H]1[C@@H](C(=O)OC)C2(c3ccccc3-c3ccccc32)N(c2ccc(Cl)cc2)N1C#N`, the EC50 was > 5000 nM (inactive).

As for `c1ccc(-c2cc(-c3nnc4sc(-c5ccccn5)nn34)[nH]n2)cc1`, the 50% effective concentration (EC50) is 4090 nM.

Consider `O=C(/C=C/c1ccccc1)CC(O)(c1ccccc1)C(F)(F)F` (configuration not stated), for which the EC50 was 1240 nM.

Consider `CCc1ccc(NSc2ccccc2[N+](=O)[O-])cc1`, for which the EC50 was 748 nM.

Consider `Cn1c(=O)c2nc(-c3ccccc3)oc2c2ccccc21`, for which the EC50 was 1870 nM.

As to `CCCc1n[nH]c2c1/C(=N/O)CC(c1ccccc1)C2` (configuration not stated), the EC50 is 1500 nM.

Turning to `N#CC(c1ccc(Cl)cc1)c1ccc2c(C(F)(F)F)cc(C(F)(F)F)nc2n1` (configuration not stated), the EC50 is 564 nM.

Regarding `Cc1cccc(OCCn2c(NC(=O)c3ccco3)nc3ccccc32)c1`, the half-maximal effective concentration (EC50) is 1870 nM.

For the compound `Cc1c(Cl)sn(-c2ccc(Cl)cc2)c1=O`, the EC50 is 545 nM.

On to `[O-][N+]1=c2ccc(Nc3ccccc3)cc2=NC12CCCCC2`, for which the EC50 is 840 nM.

Take `Cc1cc(C(=O)CCl)c(C)n1Cc1ccco1`: the EC50 was 783 nM.

In the case of `COc1ccc2c3c(cccc13)NN=C2C`, the concentration giving a half-maximal response (EC50) was 255 nM.

Turning to `c1ccc2c(c1)OC(CCCN1CCCCC1)c1ccccc1S2` (configuration not stated), the concentration for a half-maximal effect (EC50) is 134 nM.

In the case of `N=c1c2c(n(Cc3ccccc3)c3c1CCC3)CCC2`, the EC50 is 83.4 nM.

Turning to `O=C(c1ccc(-c2ccccc2)c(F)c1)C1CCCN(CCO)C1` (configuration not stated), the EC50 was 510 nM.

Regarding `COCCCNCCCCOc1ccc(Br)cc1Cl`, the 50% effective concentration (EC50) was 1.73 nM.

With `NCC12CC3CC(C1)CC(c1ccc(Cl)cc1)(C3)C2`, the EC50 is 354 nM.

Consider `CC(C)(C)c1ccc(-n2nc(C#N)c(Cl)cc2=O)cc1`, for which the EC50 is 759 nM.

For the compound `COc1cc(CNCc2cccs2)ccc1OCc1ccccc1`, the EC50 was 162 nM.

`N=C(N)SCc1cn(-c2ccccc2)nc1-c1ccc(Br)cc1`: the half-maximal effective concentration (EC50) was 1300 nM.

In the case of `Cc1ccc(-c2cc(-c3ccc(C)cc3)[n+](C)o2)cc1`, the EC50 is 183 nM.

Regarding `Cc1ccc(OCCCCn2ccnc2)c(Cl)c1`, the EC50 was 131 nM.

`Cc1ccc2c(c1)-c1cc(C)nn1C(c1ccc3c(c1)OCO3)N2` (configuration not stated): the EC50 is 1590 nM.

In the case of `Cc1ccccc1NC1=C/C(=N\S(=O)(=O)c2cccs2)c2ccccc2C1=O`, the EC50 is 208 nM.

Take `c1ccc(CNc2nc(-c3cccs3)nc3ccccc23)cc1`: the EC50 is 2140 nM.

`CCOC(=O)N=Nc1c2ccccc2c2nc3no[nH]c3nc12`: the EC50 was 784 nM.

In the case of `CC1(C)Cc2ccccc2-c2nnc(-c3ccc4ccccc4n3)n21`, the EC50 is 1020 nM.

Consider `CCCc1nc2c(=O)n(C)c(=O)nc-2n(C)n1`, for which the EC50 is 214 nM.

On to `CC(C)CCN(C)C1CCN(S(=O)(=O)c2cccc(C(F)(F)F)c2)CC1`, for which the EC50 is 9.17 nM.

`Nc1nsc2ccccc12`: the EC50 was 391 nM.

As for `CCC(/C=C1\Sc2ccc(OC)cc2N1CCO)=C\c1sc2ccc(OC)cc2[n+]1CCO`, the EC50 was 487 nM.

For the compound `CCCCCCCCCCCCCCCCn1cc[n+](C)c1`, the EC50 was 35 nM.

For the compound `COc1ccc(C(=O)C(CN2CCOCC2)c2ccccc2)cc1F` (configuration not stated), the EC50 is 2040 nM.

Take `Clc1ccccc1C(c1ccccc1)(c1ccccc1)n1ccnc1`: the half-maximal effective concentration (EC50) is 145 nM.

In the case of `COc1cc(NC(C)CCCN)c2ncccc2c1Oc1ccccc1` (configuration not stated), the concentration for a half-maximal effect (EC50) is below 10 nM.

As to `COC(=O)c1ccc2c(c1)C(C)(C)C(/C=C/c1ccc(OC)c(OC)c1OC)=[N+]2C`, the EC50 is 2.45 nM.

For the compound `COC(=O)c1ccc(COc2ccc(C3C4=C(CCCC4=O)Nc4onc(C)c43)cc2)cc1` (configuration not stated), the EC50 is 1540 nM.

For the compound `CCCCS(=O)(=O)/C=C\C=C/S(=O)(=O)CCCC`, the EC50 is 1520 nM.

Turning to `CN(C)C(=S)SSC(=S)N(C)C`, the half-maximal effective concentration (EC50) is 97.1 nM.

For `COCCCN1CCN(c2nnc3n2-c2sc(Br)cc2C(c2ccccc2Cl)=NC3)CC1`, the EC50 was 595 nM.

With `Nc1nn(-c2ccccc2)c(N)c1N=Nc1ccc2c(c1)OCO2`, the concentration giving a half-maximal response (EC50) is 846 nM.

Consider `CCOC(=O)c1c(-c2ccc(F)cc2)csc1NC(=O)CCN1CCOCC1`, for which the EC50 is 176 nM.

Consider `c1ccc(C2CCC(N3CCC(N4CCCCC4)CC3)CC2)cc1` (configuration not stated), for which the concentration for a half-maximal effect (EC50) is 2530 nM.

Consider `CCOCCN1CCN(c2nnc3n2-c2ccc(Cl)cc2C(c2ccccc2Cl)=NC3)CC1`, for which the concentration giving a half-maximal response (EC50) was 1170 nM.

For `O=S(=O)(CCSc1nc2ccccc2s1)c1nc2ccccc2s1`, the EC50 was 716 nM.

In the case of `Cc1cc(/C=C2\Sc3ccccc3N2C)cc(C)[n+]1CC1CCCO1` (configuration not stated), the EC50 was 1 nM.

`O=C(NC1CCCC1)C(c1ccc(F)cc1)N(Cc1ccc(Cl)cc1)C(=O)CCl` (configuration not stated): the EC50 was 1760 nM.

Take `c1cnc2c(c1)ccc1cccnc12`: the EC50 was > 5000 nM (inactive).

On to `O=[N+]([O-])c1cc([N+](=O)[O-])c2n[nH]c(-c3ccccc3)c2c1`, for which the EC50 is 402 nM.

With `C[C@@]1(CO)[C@H](O)CC[C@@]2(C)[C@H]1CC[C@H]1C[C@@H]3C[C@@]12CC[C@]3(O)CO`, the EC50 is 121 nM.

In the case of `Cc1nc([N+](=O)[O-])nn1C12CC3CC(CC(Cl)(C3)C1)C2`, the EC50 was 856 nM.

`O=C1CC(c2ccccc2Br)c2cc3c(cc2N1)CCC3` (configuration not stated): the EC50 was 253 nM.

As to `CN(C)c1nc(-c2ccccn2)nnc1-c1ccccc1`, the EC50 was 1460 nM.

Regarding `O=C(CCl)Nc1cccc(-c2cnc3ccccc3n2)c1`, the 50% effective concentration (EC50) was 1110 nM.

In the case of `O=C1C(=O)c2c(C(=O)c3ccccc3)coc2-c2ccccc21`, the EC50 was 1250 nM.

In the case of `COc1ccc(/C=C/c2cc[n+](C(=O)Cc3ccccc3)cc2)cc1`, the EC50 is 49.6 nM.

For the compound `O=C(Cn1cnc([N+](=O)[O-])c1)Nc1cc(Oc2ccc(Cl)cc2Cl)cc([N+](=O)[O-])c1`, the EC50 is 1510 nM.

For the compound `Cc1nn(-c2nc3ccccc3[nH]2)c(N)c1-c1ccc(Cl)cc1`, the half-maximal effective concentration (EC50) was 1540 nM.

Turning to `CCN(CC)CCOC(c1ccccc1)c1ccc(C)cc1` (configuration not stated), the EC50 was 1100 nM.

For `Cn1nc(-c2ccc(Cl)cc2)nc2c(=O)n(C)c(=O)nc1-2`, the EC50 was > 5000 nM (inactive).

On to `Cc1nc2c(=O)n(C)c(=O)nc-2n(C)n1`, for which the half-maximal effective concentration (EC50) was 201 nM.

With `CCC(C)(c1nnnn1-c1c(C)cccc1C)N(N=O)c1ccccc1Cl` (configuration not stated), the EC50 was 324 nM.

For the compound `CN(C)CCCN=c1cc(-c2ccccc2)oc2ccc(Cl)cc12`, the concentration giving a half-maximal response (EC50) was 1640 nM.

For the compound `CC(C)(C)c1ccc(-c2ncccc2O)cc1`, the 50% effective concentration (EC50) was 299 nM.

As for `COc1cc(-c2c(C#N)c(N)nc(SCc3ccncc3)c2C#N)cc(OC)c1OC`, the EC50 is 1020 nM.

`Fc1cccc(-c2nnn3c2nc(Cl)c2ccccc23)c1`: the EC50 is 490 nM.

Take `CCN(CC)c1ccc(NC(=O)CN2CCN(S(=O)(=O)c3cc(Cl)ccc3OC)CC2)cc1`: the concentration giving a half-maximal response (EC50) was 3640 nM.

Take `COc1ccc(Cn2c(-c3ccc(OC)cc3)nc3ccccc32)cc1`: the EC50 is 1110 nM.

With `CCCOC(=O)CSC1=C(C#N)C(c2ccccc2Cl)CC(=O)N1` (configuration not stated), the EC50 was 122 nM.

Consider `NC(C(=O)O)C1CC(Cl)=NO1` (configuration not stated), for which the concentration giving a half-maximal response (EC50) was 177 nM.

For the compound `Cn1cc(CN2CCC(CO)CC2)c(-c2ccc(Oc3ccccc3)cc2)n1`, the 50% effective concentration (EC50) was 164 nM.

Regarding `Cc1ccc(-c2cc3cccc[n+]3cc2-c2ccc(C)cc2)cc1`, the EC50 was 228 nM.

`CC(=O)O[C@@H]1C[C@H]2C(C)(C)C(=O)C=C[C@]2(C)[C@H]2CC[C@@]3(C)[C@H](c4ccoc4)OC(=O)[C@H]4O[C@]43[C@@]21C`: the concentration giving a half-maximal response (EC50) was 731 nM.

On to `O=[N+]([O-])c1cc(-c2nnc(C34CC5CC(CC(C5)C3)C4)o2)cc([N+](=O)[O-])c1`, for which the EC50 is 115 nM.

Turning to `Cc1nnc(Nc2ccccn2)c2ccccc12`, the concentration for a half-maximal effect (EC50) is 722 nM.

For the compound `CCN(CC)CCN(C)C1CCC(c2ccccc2)CC1` (configuration not stated), the EC50 is 823 nM.

As for `CN(CCN1CCc2ccccc2C1)Cc1nc(Cc2ccccc2F)no1`, the 50% effective concentration (EC50) was 1400 nM.

In the case of `C[n+]1c(-c2ccccc2)cc(CCCCc2cc(-c3ccccc3)[n+](C)c(-c3ccccc3)c2)cc1-c1ccccc1`, the EC50 is 702 nM.

As for `CC1=C(C(=O)Nc2cc(-c3cccc(F)c3)[nH]n2)C2(CCCCC2)OC1=O`, the EC50 is 379 nM.

Consider `Cc1nn(-c2ccccn2)c2c1C(=O)C(Br)CC2` (configuration not stated), for which the 50% effective concentration (EC50) is 967 nM.

Take `COc1ccc2cc3[n+](cc2c1OC)CCc1cc2c(cc1-3)OCO2`: the 50% effective concentration (EC50) is 375 nM.

Turning to `Clc1ccc2[nH]cc(-c3nnnn3-c3ccc4ccccc4c3)c2c1`, the EC50 was 1540 nM.

On to `CCN(CC)C(=S)SSC(=S)N(CC)CC`, for which the concentration giving a half-maximal response (EC50) was 263 nM.

As for `CC(C)(C)C1CCC2(CC1)Nc1cccc3cccc(c13)N2`, the EC50 is 1840 nM.

With `NC(=O)c1cn(C2OC(CO)C(O)C2O)c2ncnc(N)c12` (configuration not stated), the EC50 is 164 nM.

For `COc1ccc(-[n+]2c(C)cc(/C=C3\Sc4ccccc4N3C)cc2C)cc1`, the EC50 is below 10 nM.

Consider `COc1ccc(NC(=O)/C(Cl)=C(/Cl)S(=O)Cc2ccccc2Cl)cn1` (configuration not stated), for which the EC50 was 241 nM.

On to `C=CCc1ccc(OCCCCCN2CCOCC2)c(OC)c1`, for which the concentration giving a half-maximal response (EC50) is 970 nM.

Turning to `CCOC(=O)c1nnn(-c2nonc2-n2cccc2)c1CCl`, the EC50 is 1860 nM.
